This passage reports Kd results from ChEMBL document CHEMBL3991601, “The target landscape of clinical kinase drugs” (Science, 2017).

For test [1], the target named is Serine/threonine-protein kinase/endoribonuclease IRE2 (Homo sapiens, UniProt Q76MJ5).
In test [2] the target is NADH dehydrogenase [ubiquinone] 1 alpha subcomplex subunit 13 (Homo sapiens, UniProt Q9P0J0).
Test [3] addresses Serine/threonine-protein kinase MRCK beta (Homo sapiens, UniProt Q9Y5S2).
The next test has as its target T1, Aurora kinase A (Homo sapiens, UniProt O14965).
T1 sequence (O14965 whole entry): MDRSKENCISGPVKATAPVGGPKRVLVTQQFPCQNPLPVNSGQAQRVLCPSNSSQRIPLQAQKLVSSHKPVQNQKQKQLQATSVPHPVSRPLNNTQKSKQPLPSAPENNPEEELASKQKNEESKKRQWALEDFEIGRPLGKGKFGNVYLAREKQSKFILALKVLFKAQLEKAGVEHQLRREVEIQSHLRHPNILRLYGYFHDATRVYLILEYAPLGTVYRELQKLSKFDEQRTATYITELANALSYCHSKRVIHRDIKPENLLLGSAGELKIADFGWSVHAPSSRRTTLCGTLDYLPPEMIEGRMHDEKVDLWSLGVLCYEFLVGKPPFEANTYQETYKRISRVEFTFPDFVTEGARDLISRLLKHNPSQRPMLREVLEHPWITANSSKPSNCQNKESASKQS

In test [4] the target is Tyrosine-protein kinase ABL2 (Homo sapiens, UniProt P42684).
Test [5] deals with RAC-gamma serine/threonine-protein kinase (Homo sapiens, UniProt Q9Y243).
In test [6] the target is T2, Receptor-type tyrosine-protein kinase FLT3 (Homo sapiens, UniProt P36888).
T2 sequence (P36888 whole entry): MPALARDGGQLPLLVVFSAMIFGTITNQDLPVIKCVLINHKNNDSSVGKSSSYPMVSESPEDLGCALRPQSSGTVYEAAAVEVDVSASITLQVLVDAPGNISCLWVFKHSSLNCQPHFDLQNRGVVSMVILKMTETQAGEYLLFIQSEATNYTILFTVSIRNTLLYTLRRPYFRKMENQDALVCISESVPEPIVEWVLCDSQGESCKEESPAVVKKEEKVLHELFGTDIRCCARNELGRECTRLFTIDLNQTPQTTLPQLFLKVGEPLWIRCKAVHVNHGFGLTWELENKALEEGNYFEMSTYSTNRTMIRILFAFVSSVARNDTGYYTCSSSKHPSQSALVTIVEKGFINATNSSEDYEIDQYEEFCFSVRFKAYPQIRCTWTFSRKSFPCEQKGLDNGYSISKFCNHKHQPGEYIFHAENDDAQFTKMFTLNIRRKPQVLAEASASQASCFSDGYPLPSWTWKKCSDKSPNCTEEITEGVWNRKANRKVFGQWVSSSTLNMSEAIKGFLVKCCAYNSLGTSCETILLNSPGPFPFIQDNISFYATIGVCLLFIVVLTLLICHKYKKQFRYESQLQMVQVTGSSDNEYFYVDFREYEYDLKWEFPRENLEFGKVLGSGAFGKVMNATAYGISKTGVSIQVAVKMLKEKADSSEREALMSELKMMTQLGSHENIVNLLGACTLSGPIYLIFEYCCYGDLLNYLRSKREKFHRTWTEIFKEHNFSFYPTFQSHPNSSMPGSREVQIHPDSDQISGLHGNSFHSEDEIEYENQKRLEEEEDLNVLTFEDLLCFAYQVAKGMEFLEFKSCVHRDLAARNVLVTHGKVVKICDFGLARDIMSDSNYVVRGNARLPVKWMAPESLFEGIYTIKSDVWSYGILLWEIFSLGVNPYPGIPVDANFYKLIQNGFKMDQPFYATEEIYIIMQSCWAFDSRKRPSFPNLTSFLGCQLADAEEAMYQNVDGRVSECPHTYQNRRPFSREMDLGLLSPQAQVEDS

Test [7] addresses Cyclin-dependent kinase 5 (Homo sapiens, UniProt Q00535).
The target in test [8] is T3, Serine/threonine-protein kinase TAO3 (Homo sapiens, UniProt Q9H2K8).
T3 sequence (Q9H2K8 whole entry): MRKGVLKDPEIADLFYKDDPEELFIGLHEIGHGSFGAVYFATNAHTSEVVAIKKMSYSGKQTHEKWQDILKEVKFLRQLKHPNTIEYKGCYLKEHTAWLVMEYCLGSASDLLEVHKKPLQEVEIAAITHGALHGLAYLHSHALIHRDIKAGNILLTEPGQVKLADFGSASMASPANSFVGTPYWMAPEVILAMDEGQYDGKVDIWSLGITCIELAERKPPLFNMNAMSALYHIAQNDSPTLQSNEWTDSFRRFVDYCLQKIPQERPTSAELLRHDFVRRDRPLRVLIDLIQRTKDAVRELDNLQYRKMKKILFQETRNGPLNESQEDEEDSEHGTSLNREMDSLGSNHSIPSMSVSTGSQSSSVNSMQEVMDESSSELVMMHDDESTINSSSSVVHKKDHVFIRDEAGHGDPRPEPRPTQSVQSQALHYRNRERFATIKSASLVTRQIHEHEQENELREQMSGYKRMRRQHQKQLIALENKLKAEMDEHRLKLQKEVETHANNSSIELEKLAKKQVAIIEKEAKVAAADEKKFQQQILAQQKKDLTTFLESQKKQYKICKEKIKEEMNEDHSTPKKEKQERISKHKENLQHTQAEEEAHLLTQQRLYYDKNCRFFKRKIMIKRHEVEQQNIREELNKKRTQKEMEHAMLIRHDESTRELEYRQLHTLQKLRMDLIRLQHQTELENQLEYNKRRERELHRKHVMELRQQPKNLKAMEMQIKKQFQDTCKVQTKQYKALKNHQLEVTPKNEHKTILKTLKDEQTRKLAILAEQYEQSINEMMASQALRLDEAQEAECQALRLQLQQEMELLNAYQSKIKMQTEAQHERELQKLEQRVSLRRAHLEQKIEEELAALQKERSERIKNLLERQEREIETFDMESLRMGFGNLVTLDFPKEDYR

Each structure is given as a SMILES string. Calls of active or inactive are those of the source. Rule as the data show it, for most assays here: actives have a measured Kd and inactives only a lower limit.
Also: in the data inactive means no Kd found up to 30 µM.

Chain of Cyclin-dependent kinase 5 (Q00535 whole entry): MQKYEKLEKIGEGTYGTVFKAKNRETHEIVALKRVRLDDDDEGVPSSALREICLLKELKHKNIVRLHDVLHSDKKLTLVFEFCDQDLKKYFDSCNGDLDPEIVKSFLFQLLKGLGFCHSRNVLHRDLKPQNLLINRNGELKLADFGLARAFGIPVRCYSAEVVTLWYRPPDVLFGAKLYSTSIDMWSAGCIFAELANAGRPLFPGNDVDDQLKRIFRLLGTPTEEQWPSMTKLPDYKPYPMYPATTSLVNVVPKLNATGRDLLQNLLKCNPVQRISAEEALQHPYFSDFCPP
Chain of Serine/threonine-protein kinase/endoribonuclease IRE2 (Q76MJ5 whole entry): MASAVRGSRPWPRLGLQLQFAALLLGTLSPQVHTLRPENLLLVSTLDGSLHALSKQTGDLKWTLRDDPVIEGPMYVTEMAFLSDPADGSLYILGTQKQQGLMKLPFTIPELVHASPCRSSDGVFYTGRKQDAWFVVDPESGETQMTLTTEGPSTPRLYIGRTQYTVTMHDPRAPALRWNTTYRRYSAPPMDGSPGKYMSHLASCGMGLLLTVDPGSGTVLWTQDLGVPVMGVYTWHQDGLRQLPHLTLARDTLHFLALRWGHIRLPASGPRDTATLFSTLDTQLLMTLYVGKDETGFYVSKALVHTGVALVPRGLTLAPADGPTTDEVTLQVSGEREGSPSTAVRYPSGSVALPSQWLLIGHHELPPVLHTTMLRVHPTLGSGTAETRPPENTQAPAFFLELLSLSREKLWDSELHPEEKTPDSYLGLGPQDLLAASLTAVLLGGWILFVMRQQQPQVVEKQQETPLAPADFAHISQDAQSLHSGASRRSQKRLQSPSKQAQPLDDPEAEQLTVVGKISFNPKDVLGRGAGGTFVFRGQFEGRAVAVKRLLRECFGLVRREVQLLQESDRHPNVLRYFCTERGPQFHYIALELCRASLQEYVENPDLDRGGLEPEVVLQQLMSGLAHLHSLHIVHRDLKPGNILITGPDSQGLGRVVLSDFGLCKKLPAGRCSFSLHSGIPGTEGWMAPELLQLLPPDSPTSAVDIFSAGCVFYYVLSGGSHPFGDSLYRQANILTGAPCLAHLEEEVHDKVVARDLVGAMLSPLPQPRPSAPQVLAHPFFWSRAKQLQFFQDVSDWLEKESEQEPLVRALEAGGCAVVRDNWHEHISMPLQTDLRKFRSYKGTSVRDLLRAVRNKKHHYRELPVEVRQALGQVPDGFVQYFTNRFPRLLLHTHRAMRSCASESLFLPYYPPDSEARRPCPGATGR
Chain of Serine/threonine-protein kinase MRCK beta (Q9Y5S2 whole entry): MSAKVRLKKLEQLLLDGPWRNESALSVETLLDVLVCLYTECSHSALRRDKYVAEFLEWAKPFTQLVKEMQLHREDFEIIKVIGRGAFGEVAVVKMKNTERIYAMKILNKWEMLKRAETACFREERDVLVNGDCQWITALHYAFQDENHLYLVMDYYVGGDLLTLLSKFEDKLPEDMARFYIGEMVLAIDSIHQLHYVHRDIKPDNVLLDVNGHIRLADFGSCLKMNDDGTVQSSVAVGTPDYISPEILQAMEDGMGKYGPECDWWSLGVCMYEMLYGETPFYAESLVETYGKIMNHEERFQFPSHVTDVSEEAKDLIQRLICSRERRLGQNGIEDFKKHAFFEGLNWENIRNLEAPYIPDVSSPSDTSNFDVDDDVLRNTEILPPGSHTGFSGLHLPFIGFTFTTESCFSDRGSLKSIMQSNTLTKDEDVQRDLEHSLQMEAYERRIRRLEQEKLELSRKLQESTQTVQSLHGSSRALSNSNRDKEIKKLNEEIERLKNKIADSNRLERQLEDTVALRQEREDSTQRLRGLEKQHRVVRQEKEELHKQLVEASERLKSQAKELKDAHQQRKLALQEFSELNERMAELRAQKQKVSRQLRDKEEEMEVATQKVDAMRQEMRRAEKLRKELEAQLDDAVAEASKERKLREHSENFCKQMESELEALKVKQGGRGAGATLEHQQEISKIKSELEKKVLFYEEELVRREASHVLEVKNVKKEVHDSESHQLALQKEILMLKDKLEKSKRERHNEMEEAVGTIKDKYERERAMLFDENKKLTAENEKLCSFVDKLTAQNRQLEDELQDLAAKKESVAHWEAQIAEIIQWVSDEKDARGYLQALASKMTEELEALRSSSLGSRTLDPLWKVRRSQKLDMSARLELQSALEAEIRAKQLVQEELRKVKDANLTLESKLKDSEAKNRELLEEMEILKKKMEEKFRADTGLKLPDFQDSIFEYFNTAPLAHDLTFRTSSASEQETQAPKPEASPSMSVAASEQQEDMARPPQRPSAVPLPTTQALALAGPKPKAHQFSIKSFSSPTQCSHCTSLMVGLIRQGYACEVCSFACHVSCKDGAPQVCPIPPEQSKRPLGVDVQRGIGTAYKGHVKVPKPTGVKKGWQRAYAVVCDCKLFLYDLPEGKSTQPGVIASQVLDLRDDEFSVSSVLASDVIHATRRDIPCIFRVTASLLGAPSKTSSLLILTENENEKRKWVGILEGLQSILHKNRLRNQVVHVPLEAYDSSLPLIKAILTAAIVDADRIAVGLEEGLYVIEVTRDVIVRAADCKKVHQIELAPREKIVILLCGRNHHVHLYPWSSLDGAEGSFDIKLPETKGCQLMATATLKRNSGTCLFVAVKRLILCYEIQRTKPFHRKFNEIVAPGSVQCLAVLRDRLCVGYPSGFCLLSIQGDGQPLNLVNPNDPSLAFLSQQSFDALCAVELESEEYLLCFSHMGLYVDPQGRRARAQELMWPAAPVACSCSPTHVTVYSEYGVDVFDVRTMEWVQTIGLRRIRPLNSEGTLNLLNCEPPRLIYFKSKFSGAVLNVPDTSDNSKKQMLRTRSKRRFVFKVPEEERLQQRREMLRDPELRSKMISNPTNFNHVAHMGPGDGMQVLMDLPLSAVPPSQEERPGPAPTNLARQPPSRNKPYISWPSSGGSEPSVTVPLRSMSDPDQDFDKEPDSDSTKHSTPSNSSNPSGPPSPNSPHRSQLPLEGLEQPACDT
Chain of Tyrosine-protein kinase ABL2 (P42684 whole entry): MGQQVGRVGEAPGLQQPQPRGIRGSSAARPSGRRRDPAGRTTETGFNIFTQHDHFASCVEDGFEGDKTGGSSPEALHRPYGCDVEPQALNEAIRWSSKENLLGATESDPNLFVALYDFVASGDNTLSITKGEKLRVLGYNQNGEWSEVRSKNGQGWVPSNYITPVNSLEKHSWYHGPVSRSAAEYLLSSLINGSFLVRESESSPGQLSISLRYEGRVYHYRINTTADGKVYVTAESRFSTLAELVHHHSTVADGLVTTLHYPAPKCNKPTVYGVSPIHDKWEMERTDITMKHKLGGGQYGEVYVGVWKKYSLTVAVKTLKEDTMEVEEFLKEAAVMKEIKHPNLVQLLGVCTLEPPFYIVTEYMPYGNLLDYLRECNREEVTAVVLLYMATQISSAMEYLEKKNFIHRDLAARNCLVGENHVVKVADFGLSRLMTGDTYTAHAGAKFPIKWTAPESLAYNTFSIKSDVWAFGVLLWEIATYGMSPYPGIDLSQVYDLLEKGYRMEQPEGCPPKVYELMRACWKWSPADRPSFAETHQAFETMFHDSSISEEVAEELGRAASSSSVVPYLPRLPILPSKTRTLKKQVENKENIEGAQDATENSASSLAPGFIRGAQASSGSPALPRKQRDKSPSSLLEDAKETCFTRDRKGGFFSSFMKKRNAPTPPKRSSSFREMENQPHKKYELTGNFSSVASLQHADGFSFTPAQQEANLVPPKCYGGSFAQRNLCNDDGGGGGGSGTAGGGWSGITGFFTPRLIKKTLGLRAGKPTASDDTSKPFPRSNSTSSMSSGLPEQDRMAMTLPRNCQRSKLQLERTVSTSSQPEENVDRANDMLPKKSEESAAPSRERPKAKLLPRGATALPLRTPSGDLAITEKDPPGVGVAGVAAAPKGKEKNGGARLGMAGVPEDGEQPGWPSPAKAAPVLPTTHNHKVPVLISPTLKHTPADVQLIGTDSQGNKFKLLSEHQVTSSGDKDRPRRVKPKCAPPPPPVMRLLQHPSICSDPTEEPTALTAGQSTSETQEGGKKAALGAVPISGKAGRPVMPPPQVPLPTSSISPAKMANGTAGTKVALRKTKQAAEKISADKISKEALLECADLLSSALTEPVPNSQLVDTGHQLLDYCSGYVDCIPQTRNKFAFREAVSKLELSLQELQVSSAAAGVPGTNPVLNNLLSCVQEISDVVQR
Chain of RAC-gamma serine/threonine-protein kinase (Q9Y243 whole entry): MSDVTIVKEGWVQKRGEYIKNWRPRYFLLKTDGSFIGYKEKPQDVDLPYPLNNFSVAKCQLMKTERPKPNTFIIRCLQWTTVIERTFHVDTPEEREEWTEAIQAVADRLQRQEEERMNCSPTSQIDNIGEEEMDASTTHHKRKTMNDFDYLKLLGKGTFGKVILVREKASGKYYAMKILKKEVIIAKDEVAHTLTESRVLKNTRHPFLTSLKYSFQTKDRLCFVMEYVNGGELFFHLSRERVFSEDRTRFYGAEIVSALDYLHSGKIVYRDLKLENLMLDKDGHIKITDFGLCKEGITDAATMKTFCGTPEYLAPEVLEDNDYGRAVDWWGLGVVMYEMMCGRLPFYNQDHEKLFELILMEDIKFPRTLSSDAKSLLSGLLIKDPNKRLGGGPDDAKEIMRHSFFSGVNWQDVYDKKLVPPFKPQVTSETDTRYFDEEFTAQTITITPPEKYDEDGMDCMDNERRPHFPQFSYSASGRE
Chain of NADH dehydrogenase [ubiquinone] 1 alpha subcomplex subunit 13 (Q9P0J0 whole entry, one chain of several): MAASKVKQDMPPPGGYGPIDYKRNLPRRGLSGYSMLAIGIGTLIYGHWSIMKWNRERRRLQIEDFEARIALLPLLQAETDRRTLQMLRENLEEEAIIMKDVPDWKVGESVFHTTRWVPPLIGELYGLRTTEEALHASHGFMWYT

By Kd is commonly meant the constant that tells how readily two partners part at equilibrium. `CO[C@H]1C[C@@H]2CC[C@@H](C)[C@@](O)(O2)C(=O)C(=O)N2CCCC[C@H]2C(=O)O[C@H]([C@H](C)C[C@@H]2CC[C@@H](OCCO)[C@H](OC)C2)CC(=O)[C@H](C)/C=C(\C)[C@@H](O)[C@@H](OC)C(=O)[C@H](C)C[C@H](C)/C=C/C=C/C=C/1C` [EVEROLIMUS]: the Kd (in test [1]; in test [2]; in [3]; at Aurora kinase A; in test [4]; in test [5]) was > 30 µM (inactive) throughout. In addition, the Kd in test [6], in [7] and in [8] was > 30 µM (inactive) in each case.
Regarding `Cc1ccc(NC(=O)c2ccc(CN3CC[C@H](N(C)C)C3)c(C(F)(F)F)c2)cc1Nc1nccc(-c2cncnc2)n1` [BAFETINIB], the Kd (in [1]; in [2]; in test [3]; on Aurora kinase A; in test [5]; in test [6]) was > 30 µM (inactive) in each case. Moreover, the Kd in test [7] and in [8] was > 30 µM (inactive) each time.
Turning to `CC(C)Nc1cc(-c2c[nH]c(C(=O)N[C@H](CO)c3cccc(Cl)c3)c2)c(Cl)cn1` [ULIXERTINIB], the Kd (in test [1]; in test [2]; in test [3]; at Aurora kinase A; in test [4]; in test [5]) was > 30 µM (inactive) throughout. Besides, the Kd in [6], in [7] and in test [8] was > 30 µM (inactive) throughout.
As for `O=C1NC(=O)/C(=C/c2ccc3nccc(-c4ccncc4)c3c2)S1` [GSK-1059615], the Kd (in test [1]; in test [2]; in [3]; on Aurora kinase A; in test [4]; in test [5]) was > 30 µM (inactive) throughout. Further, the Kd in test [6], in test [7] and in test [8] was > 30 µM (inactive) in each case.
Regarding `C[C@@H]1CN(Cc2ccc(F)cc2)[C@@H](C)CN1C(=O)c1cc2c(C(=O)C(=O)N(C)C)cn(C)c2cc1Cl` [TALMAPIMOD], the Kd (in test [1]; in test [2]; in test [3]; at Aurora kinase A; in test [4]; in [5]) was > 30 µM (inactive) throughout. Moreover, the Kd in [6], in test [7] and in [8] was > 30 µM (inactive) throughout.
`CCS(=O)(=O)N1CC(CC#N)(n2cc(-c3ncnc4[nH]ccc34)cn2)C1` [BARICITINIB]: the Kd (in test [1]; in test [2]; in test [3]; on Aurora kinase A; in test [4]; in test [5]) was > 30 µM (inactive) throughout. Also, the Kd in test [6], in test [7] and in test [8] was > 30 µM (inactive) throughout.
Take `COc1ccc(-c2ccc3c(N4CCOC[C@@H]4C)nc(N4CCOC[C@@H]4C)nc3n2)cc1CO` [AZD-8055]: the Kd (in [1]; in test [2]; in test [3]; on Aurora kinase A; in [4]; in test [5]) was > 30 µM (inactive) throughout. The Kd in test [6], in test [7] and in [8] was > 30 µM (inactive) throughout.
For `C=CC(=O)N1CCC(Oc2cc3c(Nc4ccc(Cl)c(Cl)c4F)ncnc3cc2OC)CC1` [POZIOTINIB], the Kd (in [1]; in test [3]; at Aurora kinase A; in [4]; in test [5]; in test [6]) was > 30 µM (inactive) in each case. Further, the Kd in test [7] and in [8] was > 30 µM (inactive) in each case.
For the compound `CNC(=O)c1ccc(-c2cnc3ncc(Cc4ccc5ncccc5c4)n3n2)cc1F` [CAPMATINIB], the Kd (in [1]; in test [3]; at Aurora kinase A; in test [4]; in [5]; in test [6]) was > 30 µM (inactive) each time. Moreover, the Kd in test [7] and in test [8] was > 30 µM (inactive) each time.
As to `Cn1ncc(Cl)c1-c1cc(C(=O)N[C@H](CN)Cc2cccc(F)c2)sc1Cl` [AFURESERTIB], the Kd (in test [1]; in [2]; in test [3]; on Aurora kinase A; in test [4]; in test [6]) was > 30 µM (inactive) in each case. Further, the Kd in test [7] and in test [8] was > 30 µM (inactive) in each case.
On to `COCCNCc1ccc(-c2cc3nccc(Oc4ccc(NC(=S)NC(=O)Cc5ccc(F)cc5)cc4F)c3s2)nc1` [GLESATINIB], for which the Kd in test [1] was > 30 µM (inactive); in test [2], > 30 µM (inactive); in [3], > 30 µM (inactive); at Aurora kinase A, > 30 µM (inactive); in test [5], > 30 µM (inactive); in test [6], 0.179 µM (active). Moreover, the Kd in test [7] and in test [8] was > 30 µM (inactive) each time.
Take `CNS(=O)(=O)Nc1nccc(Cc2c(C)c3ccc(Oc4ncccn4)cc3oc2=O)c1F` [AVUTOMETINIB]: the Kd (in test [1]; in test [3]; at Aurora kinase A; in test [4]; in test [5]; in test [6]) was > 30 µM (inactive) each time. The Kd in [7] and in [8] was > 30 µM (inactive) in each case.
